Test results from patent US9771344B2, “Peloruside analogs” (Universiteit Gent, priority 2013, dated 2017).

Columns and labels:
[1] = test system: cytoplasmic microtubule complex; assay: Immunocytochemistry of the cytoplasmic microtubule complex; type: cell-based, rat kangaroo (Potorous tridactylus); details: PtK2 cells
Method: The PtK2 cell line was established from the kidney tissue of an adult male rat kangaroo (Potorous tridactylus).
Cells were seeded on glass coverslips in culture medium, supplemented with fetal bovine serum, at an initial concentration of 10,000/coverslip. After incubation overnight to allow spreading, treatments started at 37° C. for 1, 4 or 24 h. Cultures were then rinsed with phosphate-buffered saline and fixed in methanol at −20° C. The primary rabbit anti-tubulin polyclonal antibody was a gift from Dr. De Brabander (Janssen Life Sciences, Beerse, Belgium).
PtK2 cells were treated with DMSO (solvent control), JC168, or paclitaxel (positive control). After 1 hour, 4 hours, and 24 hours of incubation, cells were fixed and stained for the cytoplasmic microtubule complex.

MO4 cells [2] = assay: Sulforhodamine B assay (cell growth); type: cell-based, murine; details: 4 days
Method: (§1) MO4 cells were treated with dimethyl sulfoxide (DMSO, solvent control), 0.001, 0.01, 0.1 or 1 μg/ml JC168 for 4 days. After said 4 days of incubation the cells were fixed and stained with sulforhodamine B to determine cellular protein content. Excess dye was removed by washing. Protein-bound dye was dissolved and optical density was measured. Data represent optical density (OD) as a percentage of solvent control (mean and standard deviation, n=6).
as §1, with “FIG. 2: Comparison of JC168 and paclitaxel to inhibit cell growth. MO4” for “MO4”, “1 μg/ml JC168” for “0.001, 0.01, 0.1”, “paclitaxel” for “JC168”, “n=6). […]” for “n=6).”
The sulforhodamine B (SRB) assay was used for cell density determination. […] The method allows a large number of samples to be tested within a few days, and is a quantitative assay for growth inhibition by microtubule inhibitors. […] The protein-bound dye was dissolved in 10 mM Tris base solution for OD determination at 510 nm using a microplate reader. […]

MO4 cells [3] = assay: MTT assay (MTT conversion); type: cell-based, murine; details: 4 days
Method: (§2) FIG. 3: JC168 inhibits MTT conversion. MO4 cells were treated with dimethyl sulfoxide (DMSO, solvent control), 0.001, 0.01, 0.1 or 1 μg/ml JC168 for 4 days. Then, 3-(4,5-dimethylthiazol-2-yl)-2,5-diphenyltetrazolium bromide was added and the cultures were incubated to allow the cells to reduce the MTT into formazan. The formazan was dissolved and optical density was measured. Data represent optical density (OD) as a percentage of solvent control (mean and standard deviation, n=6).
as §2, with “FIG. 4: Comparison of” for “FIG. 3:”, “JC168 and paclitaxel to inhibit” for “JC168 inhibits”, “control), 1 μg/ml JC168” for “control), 0.001, 0.01, 0.1”, “μg/ml paclitaxel” for “μg/ml JC168”
As test cells for functional assays MO4 cells were used, which are murine virally transformed fibrosarcoma-like cells. […]
MTT (3-(4,5-Dimethylthiazol-2-yl)-2,5-diphenyltetrazolium bromide, a yellow tetrazole), was reduced to purple formazan in living cells. […] The absorbance of this colored solution was quantified by measuring it at a wavelength between 500 and 600 nm by a spectrophotometer. […]

MDA-MB231 GFP-LUC cells = assay: Collagen type I invasion assay; type: cell-based, human; details: for Histological sections of the collagen gels: cells on top of the gel: after 14 days
Method: Invading cells were counted by phase-contrast microscopy as cells with extensions penetrating into the gel. (A) Invasion was calculated as the percentage of invading cells per high powered field (mean and standard deviation, n=10). Microphotographs of representative cultures of MDA-MB231 GFP-LUC cells treated with DMSO (B), 1 μg/ml JC168 (C), and 1 μg/ml paclitaxel (D) after 24 hours of incubation on top of a collagen type I gel. Scalebar=100 μm.
These cells are derived from a human mammary carcinoma and were stably transfected with green fluorescent protein (GFP) and luciferase (LUC).
Tissue invasion requires infiltration into an extracellular matrix (ECM) dominated by networks of collagen type I. The invasion model, presented here, consists of native, acid-extracted rat tail collagen type I containing nonhelical telopeptides situated at the N- and C-terminal ends. These telopeptides play an important role in intermolecular covalent cross-links necessary for a gel architecture presenting itself as a structural barrier to cancer cell traffic. Collagen type I solution was prepared with a final concentration of 1 mg ml^−1 collagen type I by mixing the following pre-cooled (stored at 4° C.) components: 4 volumes collagen type I (stock is 3.49 mg ml^−1), 5 volumes of calcium- and magnesium-free Hank's balanced salt solution (CMF-HBSS), 1 volume of minimal essential medium (MEM) (10×), 1 volume of 0.25 M NaHCO3, 2.65 volumes of standard medium and 0.3 volumes of 1M NaOH to make the solution alkaline. The collagen type I solution was gently poured into the wells of a 6-well plate. The experimental set-up was placed at 37° C. in a humidified atmosphere with 10% CO2 in air for at least 1 h. After gelification, a cell suspension of MDA-MB231 GFP-LUC cells was added on top of the collagen gels and incubated for 24 hours. […] Invasion is calculated as the percentage of invading cells per high powered field and is expressed as the mean and standard deviation. The number of examined fields is 10. The sections were stained with hematoxylin-eosin.
MDA-MB231 GFP-LUC cells were treated with DMSO (solvent control), JC168, or paclitaxel (positive control) or left untreated (control) and incubated on a collagen type I gel. After 24 hours of incubation, invasion into the collagen was evaluated by phase-contrast microscopy. […] From this we can conclude that the number of invaded cells is clearly lower in the treated cultures.

MO4 cells [4] = assay: Chick heart invasion assay; type: cell-based, murine; details: 1 μg/ml, invasion of MO4 cells into embryonic chick heart
Method: Aggregates of MO4 cells were prepared by diluting single dissociated cells to appropriate concentrations in 6 ml complete growth medium in a 50 ml Erlenmeyer flask and incubated on a Gyrotory shaker at 37° C. and 70 rpm in a humidified atmosphere with 10% CO2 in air for 72 h. The aggregates were confronted overnight on top of semi-solid agar medium with precultured heart fragments (PHF, diameter 0.4 mm) prepared from 9-day-old chick embryos. Suspension organotypic cultures were incubated in 1.5 ml culture medium with or without a test compound on a Gyrotory shaker at 120 rpm under a controlled atmosphere containing 10% CO2 in air. Cells were fixed in Bouin-Hollande's solution and embedded in paraffin for histologic determination of cell invasiveness. Consecutive sections were stained with haematoxylin-eosin. Invasion is defined as the progressive occupation of PHF by the confronting test cells. Microscopic analysis of all consecutive sections from a confronting culture allowed the reconstruction of the interaction between the cell aggregate and the PHF in three dimensions.
The observation of different patterns of interaction has led to the following scale:
Grade I and II are observed with non-invasive cell populations, while grade III an IV are typical of invasion. To evaluate progression with time, histological analysis was done on confronting cultures fixed after different incubation periods.
MO4 cells were confronted with precultured heart fragments and the organotypic cultures were incubated in suspension in the presence of DMSO (solvent control), JC168 or paclitaxel (positive control) for 2-4 days.

| SMILES | Effect on the cytoplasmic microtubule complex, 1 hour ([1]; 0.1 μg/ml) | Effect on the cytoplasmic microtubule complex, 4 hours ([1]; 0.1 μg/ml) | Effect on the cytoplasmic microtubule complex, 24 hours ([1]; 0.1 μg/ml) | Effect on the cytoplasmic microtubule complex, 1 hour ([1]; 1.0 μg/ml) | Effect on the cytoplasmic microtubule complex, 4 hours ([1]; 1.0 μg/ml) | Effect on the cytoplasmic microtubule complex, 24 hours ([1]; 1.0 μg/ml) | Potency to inhibit cell growth as compared to paclitaxel (MO4 cells [2]; 1 μg/ml each, FIG. 2) [%] | Effect on cell growth (sulforhodamine B, words) (MO4 cells [2]; 0.001-1 μg/ml, FIG. 1) | Potency to inhibit MTT conversion as compared to paclitaxel (MO4 cells [3]; 1 μg/ml each, FIG. 4) [%] | Effect on MTT conversion into formazan (MO4 cells [3]; 0.001-1 μg/ml, FIG. 3) | Potency to inhibit invasion in collagen type I as compared to paclitaxel (MDA-MB231 GFP-LUC cells; MDA-MB231 GFP-LUC cells, 24 hours) [%] | Effect on invasion into collagen type I (MDA-MB231 GFP-LUC cells; MDA-MB231 GFP-LUC cells, 24 hours, FIG. 5) | Histological sections of the collagen gels: cells on top of the gel (MDA-MB231 GFP-LUC cells) | Number of organotypic cultures classified Grade I (MO4 cells [4]; incubation 2 days) | Number of organotypic cultures classified Grade II (MO4 cells [4]; incubation 3 days) | Number of organotypic cultures classified Grade II (MO4 cells [4]; incubation 4 days) | Number of organotypic cultures classified Grade III (MO4 cells [4]; incubation 4 days) |
| --- | --- | --- | --- | --- | --- | --- | --- | --- | --- | --- | --- | --- | --- | --- | --- | --- | --- |
| CC[C@H](/C=C(/C)[C@@H]1C[C@@H](OC)C[C@H](O)C(C)(C)c2cccc(c2)C[C@@H](O)C(O)C(=O)O1)CO (stereo partly drawn) [JC168, (1′Z,3R,3′R,4S,7S,9S,11S)-3,4,11-Trihydroxy-7-(3′-hydroxymethyl-1′-methylpent-1′-enyl)-9-methoxy-12,12-dimethyl-6-oxabicyclo[11.3.1]heptadeca-1(17),13,15-trien-5-one] | disturbed | disturbed | disturbed | disturbed | disturbed | disturbed | 5 | inhibits cell growth | 3 | inhibits the conversion | 89 | inhibits invasion | low number of cells on top of the gel | n = 5 | n = 5 | n = 3 | n = 3 |
| CC(=O)O[C@H]1C(=O)[C@@]2(C)[C@H]([C@H](OC(=O)c3ccccc3)[C@]3(O)C[C@H](OC(=O)[C@H](O)[C@@H](NC(=O)c4ccccc4)c4ccccc4)C(C)=C1C3(C)C)[C@]1(OC(C)=O)CO[C@@H]1C[C@@H]2O [paclitaxel, reference compound] | normal | disturbed | disturbed | disturbed | disturbed | disturbed | – | – | – | – | – | – | low number of cells on top of the gel | – | – | n = 5 | – |
